Test results taken from ChEMBL document CHEMBL1201862, “PubChem BioAssay data set” (2004).
Active and inactive are the calls of the source.

Assays:
[1] = target: Peroxisome proliferator-activated receptor gamma/Nuclear receptor coactivator 3 (Homo sapiens, UniProt P37231); assay type: functional;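 note: agonist potency for raising coactivator recruitment to the receptor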
[2] = target: Peroxisome proliferator-activated receptor gamma/Nuclear receptor coactivator 1 (Homo sapiens, UniProt P37231); assay type: functional;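 note: agonist potency as compounds enhance coactivator SRC-1 recruitment to PPARgamma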
[3] = target: T1, Rac GTPase-activating protein 1 (Homo sapiens, UniProt Q9H0H5); test: MgcRacGAP GTPase-activating activity inhibitors, confirmation, biochemical, ADP Hunter fluorescence, primary and confirmatory (AID 624330); assay type: functional
T1 sequence (Q9H0H5 whole entry): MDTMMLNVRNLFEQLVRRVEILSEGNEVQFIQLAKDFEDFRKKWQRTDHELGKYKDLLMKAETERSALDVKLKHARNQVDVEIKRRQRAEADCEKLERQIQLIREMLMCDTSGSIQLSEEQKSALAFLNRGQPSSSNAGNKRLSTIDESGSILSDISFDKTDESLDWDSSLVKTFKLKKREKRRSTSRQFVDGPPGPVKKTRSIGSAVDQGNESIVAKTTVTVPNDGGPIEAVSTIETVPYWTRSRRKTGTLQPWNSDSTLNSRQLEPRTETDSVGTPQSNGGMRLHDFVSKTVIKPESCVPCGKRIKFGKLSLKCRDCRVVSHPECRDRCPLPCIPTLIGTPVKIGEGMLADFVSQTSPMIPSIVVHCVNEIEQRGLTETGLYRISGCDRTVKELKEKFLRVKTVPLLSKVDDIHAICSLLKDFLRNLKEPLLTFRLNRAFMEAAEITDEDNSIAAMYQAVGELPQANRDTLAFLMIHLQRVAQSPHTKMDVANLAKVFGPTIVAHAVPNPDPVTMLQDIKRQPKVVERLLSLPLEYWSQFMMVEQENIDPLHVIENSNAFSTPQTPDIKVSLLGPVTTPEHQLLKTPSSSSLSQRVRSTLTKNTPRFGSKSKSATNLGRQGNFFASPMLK

[4] = target: Peroxisome proliferator-activated receptor gamma/Nuclear receptor coactivator 2 (Homo sapiens, UniProt P37231); assay type: functional;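 note: agonist potency for raising coactivator recruitment to the receptor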
Cytochrome P450 2C9 = Cytochrome P450 2C9 (Homo sapiens, UniProt P11712)
Large T antigen = Large T antigen (Simian virus 40, UniProt P03070); assay type: functional, Betapolyomavirus macacae;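 note: Confirmatory-stage PubChem screen for compounds that inhibit SV40 T antigen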
[5] = target: DNA dC->dU-editing enzyme APOBEC-3A (Homo sapiens, UniProt P31941); test: Dose Response confirmation of small molecule APOBEC3A DNA Deaminase Inhibitors via a fluorescence-based single-stranded DNA deaminase assay. [Related pubchem assays (depositor defined):AID493011, AID493024]; assay type: functional
[6] = target: DNA dC->dU-editing enzyme APOBEC-3G (Homo sapiens, UniProt Q9HC16); assay type: functional;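 note: Dose-response counterscreen measuring inhibition of APOBEC3G DNA deaminase activity, run while confirming APOBEC3A inhibitors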
[7] = C. albicans growth with fluconazole, confirmation, fluorescence, retest (AID 2467); assay type: functional, cell-based
[8] = NIH-3T3 fibroblast cytotoxicity, dose response, cytotoxicity control, cell-based, fluorescence, Alamar Blue, secondary assay (AID 2327); assay type: functional;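 note: NIH-3T3 mouse fibroblasts cultured with fluconazole at 8 µg/mL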
[9] = target: Nucleotide-binding oligomerization domain-containing protein 2 (Homo sapiens, UniProt Q9HC29); test: NOD2 signaling inhibitors, cell-based, luminescence, uHTS, HEK293 (AID 1566); assay type: functional
HEK293 [10] = test: cells; assay type: functional, cell-based; conditions: Homo sapiens
HEK293 [11] = test: cells; assay type: functional, cell-based; conditions: Homo sapiens; remark: listed apart in the source
HEK293 [12] = test: NOD2 signaling inhibitors in MDP-stimulated cells, cell-based, uHTS, luminescence (AID 2001); assay type: functional; conditions: Homo sapiens
HEK293 [13] = test: cells; assay type: functional, cell-based; conditions: Homo sapiens; remark: listed apart in the source
HEK293 [14] = test: NOD1 signaling inhibitors, primary screen, cell-based, luminescence, uHTS (AID 1578); assay type: functional; conditions: Homo sapiens
Escherichia coli = test: microbe, parasite or virus in culture
[15] = target: G-protein coupled receptor 55 (Homo sapiens, UniProt Q9Y2T6); test: GPR55 antagonists blocking LPI-driven arrestin recruitment, primary screen, imaging, U2OS, beta-arrestin-GFP, LPI agonist (AID 2013); assay type: functional;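 note: antagonist potency measured as reduced agonist-driven arrestin aggregation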
[16] = target: T2, Carboxy-terminal domain RNA polymerase II polypeptide A small phosphatase 1 (Homo sapiens, UniProt Q9GZU7); test: inhibitors of CTDSP1, concentration-response testing, biochemical assay, absorbance-based, actives from ultra-high-throughput screening (AID 540297); assay type: functional
T2 sequence (Q9GZU7 whole entry): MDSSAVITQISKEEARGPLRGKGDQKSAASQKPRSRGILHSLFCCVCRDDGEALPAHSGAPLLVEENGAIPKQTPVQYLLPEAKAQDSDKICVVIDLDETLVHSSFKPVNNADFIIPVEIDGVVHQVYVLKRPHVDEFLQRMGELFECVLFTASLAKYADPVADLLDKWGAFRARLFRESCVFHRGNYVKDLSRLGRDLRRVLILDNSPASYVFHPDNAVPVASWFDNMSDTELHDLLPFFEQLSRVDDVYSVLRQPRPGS

[17] = target: Induced myeloid leukemia cell differentiation protein Mcl-1 (Homo sapiens, UniProt Q07820); assay type: functional
[18] = target: T3, RNA-binding protein pos-1 (Caenorhabditis elegans, UniProt G5EF15); test: inhibitors of POS-1/mex-3 RNA binding, dose response, biochemical, fluorescence polarization (AID 1964);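 note: purified POS-1 fused to maltose binding protein made in E. coli; potency of compounds blocking POS-1 binding to fluorescent RNA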
T3 sequence (G5EF15 whole entry): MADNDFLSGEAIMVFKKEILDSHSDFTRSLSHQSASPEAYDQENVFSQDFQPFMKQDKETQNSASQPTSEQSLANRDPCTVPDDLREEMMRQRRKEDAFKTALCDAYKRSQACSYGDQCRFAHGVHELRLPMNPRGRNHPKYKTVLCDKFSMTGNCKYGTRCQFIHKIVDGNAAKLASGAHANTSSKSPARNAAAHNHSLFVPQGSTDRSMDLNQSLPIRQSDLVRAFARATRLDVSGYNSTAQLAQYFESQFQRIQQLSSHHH

Genome polyprotein = Genome polyprotein (dengue virus type 2, UniProt P29990); test: Dengue-2 NS5 methyltransferase inhibitors, primary screen, biochemical, confirmation dose response (AID 588689); assay type: functional
[19] = target: T4, Zinc finger protein mex-5 (Caenorhabditis elegans, UniProt Q9XUB2); test: MEX-5/TCR-2 RNA interaction inhibitors, dose response, biochemical, C. elegans, fluorescence polarization (AID 1960)
T4 sequence (Q9XUB2 whole entry): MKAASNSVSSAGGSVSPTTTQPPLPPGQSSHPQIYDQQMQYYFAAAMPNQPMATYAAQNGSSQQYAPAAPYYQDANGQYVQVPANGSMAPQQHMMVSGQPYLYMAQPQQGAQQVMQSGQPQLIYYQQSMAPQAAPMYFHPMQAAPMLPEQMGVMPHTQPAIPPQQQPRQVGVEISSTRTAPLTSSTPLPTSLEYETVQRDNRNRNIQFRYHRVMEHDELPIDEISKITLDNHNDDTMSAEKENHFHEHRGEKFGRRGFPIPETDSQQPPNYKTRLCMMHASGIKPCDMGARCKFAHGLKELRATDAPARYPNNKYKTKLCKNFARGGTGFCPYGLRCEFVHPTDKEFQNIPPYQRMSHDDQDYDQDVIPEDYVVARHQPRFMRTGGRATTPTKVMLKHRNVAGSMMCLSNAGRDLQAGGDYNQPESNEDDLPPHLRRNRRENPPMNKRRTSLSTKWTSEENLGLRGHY

[20] = target: T5, Alkaline phosphatase, tissue-nonspecific isozyme (Homo sapiens, UniProt P05186); test: human TNAP enzyme inhibitors, SAR follow-up, biochemical, luminescent, dose response (AID 1056)
T5 sequence (P05186 whole entry): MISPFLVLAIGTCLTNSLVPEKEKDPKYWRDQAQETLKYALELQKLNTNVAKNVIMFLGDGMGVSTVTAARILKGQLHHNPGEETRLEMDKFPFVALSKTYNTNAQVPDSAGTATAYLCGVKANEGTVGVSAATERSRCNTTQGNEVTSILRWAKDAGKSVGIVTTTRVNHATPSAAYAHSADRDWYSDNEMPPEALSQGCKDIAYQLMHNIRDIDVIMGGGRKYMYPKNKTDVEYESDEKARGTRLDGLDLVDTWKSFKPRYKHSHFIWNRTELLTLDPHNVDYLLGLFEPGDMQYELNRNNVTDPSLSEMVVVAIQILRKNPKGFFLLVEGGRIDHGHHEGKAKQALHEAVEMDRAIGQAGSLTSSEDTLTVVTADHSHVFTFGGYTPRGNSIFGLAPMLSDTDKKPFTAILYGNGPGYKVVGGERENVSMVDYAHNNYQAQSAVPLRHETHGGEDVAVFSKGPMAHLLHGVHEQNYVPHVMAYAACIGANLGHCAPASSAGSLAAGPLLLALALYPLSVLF

[21] = target: T6, Ubiquitin-conjugating enzyme E2 N (Homo sapiens, UniProt P61088); assay type: functional;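 note: Dose-response confirmation in a TR-FRET assay detecting UBC13-driven polyubiquitin chain formation, inhibition measured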
T6 sequence (P61088 whole entry): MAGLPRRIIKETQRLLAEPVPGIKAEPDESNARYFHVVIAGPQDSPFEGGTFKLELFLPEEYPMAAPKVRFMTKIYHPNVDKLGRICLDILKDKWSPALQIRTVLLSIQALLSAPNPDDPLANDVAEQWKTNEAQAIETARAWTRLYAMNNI

[22] = inhibitors of intracellular T. cruzi replication, confirmation, NIH3T3 host cells, beta-gal luminescence (AID 2044); assay type: functional, cell-based;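 note: intracellular parasites grown in NIH/3T3 mouse fibroblasts as host cells; luminescent beta-galactosidase reporter signal from transgenic T. cruzi replicating inside host cells; inhibitors lower the luminescence signal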
[23] = cytotoxicity toward NIH3T3 fibroblasts, dose response, counter-screen, cell-based, ATP luminescence, mouse fibroblasts (AID 2010); assay type: functional;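 note: cells exposed to compound for about 90 hours before reading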
[24] = HEp-2 cell cytotoxicity, dose response, cytotoxicity control for RSV inhibitor project, HTS (AID 2410); assay type: functional; conditions: human respiratory syncytial virus

Chain of DNA dC->dU-editing enzyme APOBEC-3G (Q9HC16 whole entry): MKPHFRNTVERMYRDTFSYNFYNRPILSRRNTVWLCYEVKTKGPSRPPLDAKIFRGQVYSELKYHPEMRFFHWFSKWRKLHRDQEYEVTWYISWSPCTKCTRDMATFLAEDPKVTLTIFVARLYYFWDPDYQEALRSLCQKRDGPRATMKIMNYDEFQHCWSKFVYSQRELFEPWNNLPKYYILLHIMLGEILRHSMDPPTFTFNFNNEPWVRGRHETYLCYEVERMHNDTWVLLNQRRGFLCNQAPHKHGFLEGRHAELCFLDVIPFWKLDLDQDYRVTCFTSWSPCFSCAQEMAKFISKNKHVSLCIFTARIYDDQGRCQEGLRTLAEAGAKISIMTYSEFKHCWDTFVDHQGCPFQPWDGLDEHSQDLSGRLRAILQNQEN
Chain of Peroxisome proliferator-activated receptor gamma/Nuclear receptor coactivator 2 (P37231 whole entry): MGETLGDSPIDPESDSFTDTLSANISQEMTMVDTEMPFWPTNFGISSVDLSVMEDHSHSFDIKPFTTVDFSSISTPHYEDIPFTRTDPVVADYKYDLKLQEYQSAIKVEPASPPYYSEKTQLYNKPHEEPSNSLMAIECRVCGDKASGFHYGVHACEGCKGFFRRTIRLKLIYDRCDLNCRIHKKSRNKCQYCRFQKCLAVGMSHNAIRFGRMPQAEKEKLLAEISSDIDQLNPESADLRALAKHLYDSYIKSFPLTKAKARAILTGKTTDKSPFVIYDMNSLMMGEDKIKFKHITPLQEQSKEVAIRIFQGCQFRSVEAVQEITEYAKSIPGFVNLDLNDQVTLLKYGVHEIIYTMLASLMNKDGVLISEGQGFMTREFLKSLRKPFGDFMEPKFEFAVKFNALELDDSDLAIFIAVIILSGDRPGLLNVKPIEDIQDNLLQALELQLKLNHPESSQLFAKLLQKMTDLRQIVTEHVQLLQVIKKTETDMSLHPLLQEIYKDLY
Chain of Peroxisome proliferator-activated receptor gamma/Nuclear receptor coactivator 2 (Q15596 whole entry, further chain): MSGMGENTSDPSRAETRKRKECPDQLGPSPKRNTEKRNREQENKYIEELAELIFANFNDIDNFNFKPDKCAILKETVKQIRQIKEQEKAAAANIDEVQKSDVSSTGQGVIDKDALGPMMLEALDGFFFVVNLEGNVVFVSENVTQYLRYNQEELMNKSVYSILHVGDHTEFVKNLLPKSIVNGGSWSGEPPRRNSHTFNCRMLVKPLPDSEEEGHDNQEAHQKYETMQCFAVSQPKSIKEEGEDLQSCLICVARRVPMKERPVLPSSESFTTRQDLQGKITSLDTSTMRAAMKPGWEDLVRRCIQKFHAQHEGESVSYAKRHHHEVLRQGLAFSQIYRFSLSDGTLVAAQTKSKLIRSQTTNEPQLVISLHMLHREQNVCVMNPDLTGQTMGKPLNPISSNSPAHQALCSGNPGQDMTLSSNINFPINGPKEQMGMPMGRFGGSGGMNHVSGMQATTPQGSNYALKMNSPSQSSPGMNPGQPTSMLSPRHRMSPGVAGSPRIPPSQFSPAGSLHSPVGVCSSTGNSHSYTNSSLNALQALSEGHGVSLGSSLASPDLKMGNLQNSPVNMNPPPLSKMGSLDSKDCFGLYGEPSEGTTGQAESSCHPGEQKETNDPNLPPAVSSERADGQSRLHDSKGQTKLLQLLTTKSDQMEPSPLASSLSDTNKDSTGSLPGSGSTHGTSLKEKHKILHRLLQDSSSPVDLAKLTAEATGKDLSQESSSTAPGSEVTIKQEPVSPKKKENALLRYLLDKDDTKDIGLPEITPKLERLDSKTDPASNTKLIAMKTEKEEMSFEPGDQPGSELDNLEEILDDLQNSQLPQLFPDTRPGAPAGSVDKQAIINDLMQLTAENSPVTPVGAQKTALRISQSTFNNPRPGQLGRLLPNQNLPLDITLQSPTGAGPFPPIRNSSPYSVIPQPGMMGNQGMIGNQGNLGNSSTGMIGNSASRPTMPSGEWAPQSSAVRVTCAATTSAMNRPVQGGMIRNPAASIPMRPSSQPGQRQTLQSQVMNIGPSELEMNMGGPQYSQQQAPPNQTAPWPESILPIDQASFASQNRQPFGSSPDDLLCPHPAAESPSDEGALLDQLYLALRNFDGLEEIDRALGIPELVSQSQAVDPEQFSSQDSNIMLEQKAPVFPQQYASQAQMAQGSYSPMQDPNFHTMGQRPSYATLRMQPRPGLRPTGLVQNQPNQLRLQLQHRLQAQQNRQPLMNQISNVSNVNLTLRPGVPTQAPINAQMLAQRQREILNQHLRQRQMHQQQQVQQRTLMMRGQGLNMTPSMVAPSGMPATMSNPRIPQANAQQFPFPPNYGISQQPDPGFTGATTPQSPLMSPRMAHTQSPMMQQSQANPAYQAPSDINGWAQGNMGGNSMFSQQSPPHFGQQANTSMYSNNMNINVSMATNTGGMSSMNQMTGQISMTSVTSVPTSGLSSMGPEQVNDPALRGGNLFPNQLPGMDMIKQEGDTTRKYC
Chain of Peroxisome proliferator-activated receptor gamma/Nuclear receptor coactivator 1 (P37231 whole entry): as the sequence (P37231 whole entry) above
Chain of Peroxisome proliferator-activated receptor gamma/Nuclear receptor coactivator 1 (Q15788 whole entry, further chain): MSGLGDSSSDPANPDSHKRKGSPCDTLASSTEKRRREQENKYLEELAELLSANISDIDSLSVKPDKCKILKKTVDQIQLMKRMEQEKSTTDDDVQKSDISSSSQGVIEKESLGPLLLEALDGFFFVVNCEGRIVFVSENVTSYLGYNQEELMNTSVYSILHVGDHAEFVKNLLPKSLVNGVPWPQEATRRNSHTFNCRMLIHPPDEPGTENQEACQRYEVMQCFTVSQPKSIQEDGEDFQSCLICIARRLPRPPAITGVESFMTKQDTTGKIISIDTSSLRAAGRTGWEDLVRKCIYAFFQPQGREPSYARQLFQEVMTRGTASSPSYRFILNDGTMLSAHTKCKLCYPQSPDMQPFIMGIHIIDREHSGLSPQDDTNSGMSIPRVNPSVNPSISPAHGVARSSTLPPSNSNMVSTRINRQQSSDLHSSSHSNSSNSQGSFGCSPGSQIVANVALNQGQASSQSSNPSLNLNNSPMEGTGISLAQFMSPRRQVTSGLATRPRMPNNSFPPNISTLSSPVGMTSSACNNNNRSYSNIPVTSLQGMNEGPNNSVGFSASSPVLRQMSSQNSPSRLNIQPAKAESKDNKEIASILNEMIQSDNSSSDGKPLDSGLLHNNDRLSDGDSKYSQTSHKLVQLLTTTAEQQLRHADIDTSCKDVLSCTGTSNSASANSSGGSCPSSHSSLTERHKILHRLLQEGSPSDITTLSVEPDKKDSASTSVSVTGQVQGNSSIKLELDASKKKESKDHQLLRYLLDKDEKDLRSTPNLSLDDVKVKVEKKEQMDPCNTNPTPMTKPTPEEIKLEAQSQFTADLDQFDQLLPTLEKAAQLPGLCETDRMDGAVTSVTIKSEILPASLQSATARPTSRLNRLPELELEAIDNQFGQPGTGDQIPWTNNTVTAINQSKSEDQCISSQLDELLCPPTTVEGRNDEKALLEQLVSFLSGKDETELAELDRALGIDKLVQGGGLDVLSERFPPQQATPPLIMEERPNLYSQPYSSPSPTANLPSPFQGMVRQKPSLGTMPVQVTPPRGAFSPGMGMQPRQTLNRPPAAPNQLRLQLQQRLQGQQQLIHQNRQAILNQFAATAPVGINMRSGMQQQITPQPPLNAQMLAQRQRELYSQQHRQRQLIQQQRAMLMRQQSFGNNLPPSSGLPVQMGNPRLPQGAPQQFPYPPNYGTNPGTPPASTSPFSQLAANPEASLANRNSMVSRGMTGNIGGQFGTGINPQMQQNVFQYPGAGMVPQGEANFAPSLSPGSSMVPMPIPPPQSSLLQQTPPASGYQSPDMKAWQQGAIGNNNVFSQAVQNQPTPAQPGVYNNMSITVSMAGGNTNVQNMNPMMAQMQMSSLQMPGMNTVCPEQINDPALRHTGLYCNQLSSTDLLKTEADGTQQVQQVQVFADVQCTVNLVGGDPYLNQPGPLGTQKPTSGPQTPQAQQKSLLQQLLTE
Chain of G-protein coupled receptor 55 (Q9Y2T6 whole entry, the tested form may be a part): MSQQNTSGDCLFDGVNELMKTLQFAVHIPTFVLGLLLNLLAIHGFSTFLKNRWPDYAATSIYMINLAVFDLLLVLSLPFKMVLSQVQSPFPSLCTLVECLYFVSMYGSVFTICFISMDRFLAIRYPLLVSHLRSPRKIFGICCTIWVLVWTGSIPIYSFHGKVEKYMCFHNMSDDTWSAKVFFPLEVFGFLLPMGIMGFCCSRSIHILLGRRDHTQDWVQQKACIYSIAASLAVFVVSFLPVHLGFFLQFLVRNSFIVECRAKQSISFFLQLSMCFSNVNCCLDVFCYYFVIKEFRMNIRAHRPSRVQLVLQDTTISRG
Chain of DNA dC->dU-editing enzyme APOBEC-3A (P31941 whole entry): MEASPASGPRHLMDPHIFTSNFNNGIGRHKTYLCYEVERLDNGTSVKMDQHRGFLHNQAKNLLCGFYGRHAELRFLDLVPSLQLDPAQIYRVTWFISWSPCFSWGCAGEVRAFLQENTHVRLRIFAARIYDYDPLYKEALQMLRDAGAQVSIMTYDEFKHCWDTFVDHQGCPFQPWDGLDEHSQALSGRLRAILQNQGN

## O=C(N/N=C/c1ccc(O)cc1)c1csc2ccccc12
[1]
  EC50: > 79.4 µM (not active)
[2]
  EC50: > 79.4 µM (not active)
[3]
  IC50: 42.3 µM (active)
[4]
  EC50: > 79.4 µM (not active)
Cytochrome P450 2C9
  AC50: inconclusive
Large T antigen
  IC50: 13.3 µM (active)

## CCCCn1c(N)c(N(CCOC)C(=O)c2cc(-c3ccc(OC)c(OC)c3)nc3ccccc23)c(=O)[nH]c1=O
[5]
  IC50: 7.62 µM (active)
[6]
  IC50: 9.16 µM (active)

## Cc1ccc(O)c(/N=C/c2cc(Cc3ccccc3)cc([N+](=O)[O-])c2O)c1
[7]
  EC50: 3.37 µM (active)
[8]
  EC50: 13.8 µM (active)
[9]
  EC50: 9.92 µM (active)
HEK293 [10]
  IC50: > 20 µM (inactive)
[3]
  IC50: 37.8 µM (active)
HEK293 [11]
  IC50: > 20 µM (inactive)
HEK293 [12]
  IC50: 12.4 µM (inactive)
HEK293 [13]
  IC50: > 20 µM (inactive)
HEK293 [14]
  EC50: 6.21 µM (active)

## CC(C)(C)OC(=O)[C@H](Cc1ccccc1)NC(=O)c1[nH]cnc1C(=O)NC1CCN(C(=O)OC(C)(C)C)CC1
Escherichia coli
  AC50: 19 µM (active)
[15]
  IC50: 5.3 µM (active)

## NC(=S)n1[nH]c(-c2ccc([N+](=O)[O-])cc2)c(/N=N/c2ccccc2[N+](=O)[O-])c1=O
[16]
  IC50: 1.46 µM (active)
[17]
  IC50: 23.2 µM (active)

## CNC(=O)c1ccc(NC(=O)CC23CC4CC(CC(C4)C2)C3)cc1
[15]
  IC50: 3.14 µM (active)

## Cc1cc(C(=O)O)ccc1-c1ccc(/C=C2\NC(=O)N(Cc3ccc(F)cc3)C2=O)o1
[16]
  IC50: 3.42 µM (active)
[18]
  EC50: 195 µM (active)
[5]
  IC50: 20.8 µM (active)
Genome polyprotein
  IC50: > 100 µM (active)
[19]
  EC50: 191 µM (active)
[6]
  IC50: 42 µM (active)

## Cc1ccc(S(=O)(=O)/C(=C/Cl)NC(=O)c2ccccc2)cc1
[9]
  EC50: 14.3 µM (active)
HEK293 [10]
  IC50: > 20 µM (inactive)
HEK293 [11]
  IC50: > 20 µM (inactive)
HEK293 [12]
  IC50: 3.32 µM (active)
HEK293 [13]
  IC50: 3.6 µM (active)
HEK293 [14]
  EC50: 6.37 µM (active)

## O=C(Cn1ccnc1-c1ccccc1)c1ccc(O)c(O)c1
[20]
  IC50: > 100 µM (inactive)

## CC(C)(O)C#Cc1ccc(CN2CCN(C3CCCCC3)C(CCO)C2)cc1 (stereo not given)
[1]
  EC50: > 79.4 µM (not active)
[2]
  EC50: > 79.4 µM (not active)
[17]
  IC50: 21.2 µM (not active)
[4]
  EC50: > 79.4 µM (not active)

## Cn1c(=O)c2c(ncn2Cc2ccccc2)n(C)c1=O
[21]
  IC50: > 20 µM (inactive)

## CN(CP(=O)(O)CN(C)S(C)(=O)=O)S(C)(=O)=O
[1]
  EC50: > 79.4 µM (not active)
[2]
  EC50: > 79.4 µM (not active)
[4]
  EC50: > 79.4 µM (not active)

## COc1ccc(/C=N/NS(=O)(=O)c2ccc(F)cc2)cc1COc1cc(F)ccc1[N+](=O)[O-]
[22]
  EC50: 2.19 µM (active)
[9]
  EC50: > 20 µM (inactive)
HEK293 [10]
  IC50: > 20 µM (inactive)
HEK293 [11]
  IC50: > 20 µM (inactive)
HEK293 [12]
  IC50: > 20 µM (inactive)
HEK293 [13]
  IC50: 6.45 µM (active)
HEK293 [14]
  EC50: > 20 µM (inactive)
[23]
  EC50: > 60 µM (inconclusive)

## COc1cc(NS(=O)(=O)c2ccc(Nc3nc(-c4ccccc4)cs3)cc2)nc(OC)n1
[24]
  CC50: 11.3 µM (active)
[15]
  IC50: 4.49 µM (active)

## O=C(/C=C/c1ccco1)N1CCN(S(=O)(=O)c2cccc([N+](=O)[O-])c2)CC1
[5]
  IC50: 15.5 µM (active)
[6]
  IC50: 23.6 µM (active)
